In PubChem BioAssay (NCI):
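All cell lines were grown in 96-well plates and treated with compound for 48 hours. Here, GI50 denotes the concentration required for 50% inhibition of growth. TGI marks complete inhibition of growth.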

Legend:
Experiment in all cases: NCI tumour cell line growth inhibition, 48 h
SW-620 colon = test system: SW-620 colon
M14 melanoma = test system: M14 melanoma
NCI-H522 lung = test system: NCI-H522 lung
PC-3 prostate = test system: PC-3 prostate
HT29 colon = test system: HT29 colon
NCI-H460 lung = test system: NCI-H460 lung
HCC-2998 colon = test system: HCC-2998 colon
SNB-75 CNS = test system: SNB-75 CNS
OVCAR-4 ovarian = test system: OVCAR-4 ovarian
U251 CNS = test system: U251 CNS
SF-539 CNS = test system: SF-539 CNS
MDA-MB-231 breast = test system: MDA-MB-231 breast
DU-145 prostate = test system: DU-145 prostate
A498 renal = test system: A498 renal
RPMI-8226 leukemia = test system: RPMI-8226 leukemia
HCT-116 colon = test system: HCT-116 colon
NCI-H226 lung = test system: NCI-H226 lung
TK-10 renal = test system: TK-10 renal
UACC-62 melanoma = test system: UACC-62 melanoma
LOX IMVI melanoma = test system: LOX IMVI melanoma
SF-268 CNS = test system: SF-268 CNS
CCRF-CEM leukemia = test system: CCRF-CEM leukemia
SK-MEL-5 melanoma = test system: SK-MEL-5 melanoma
BT-549 breast = test system: BT-549 breast
NCI/ADR-RES ovarian = test system: NCI/ADR-RES ovarian
SNB-19 CNS = test system: SNB-19 CNS
EKVX NSCLC = test system: EKVX NSCLC
HCT-15 colon = test system: HCT-15 colon
786-0 renal = test system: 786-0 renal

Cc1ccc2cc3c(N)c4c(C)ccc(C)c4nc3nc2c1
TGI (SW-620 colon): 15.3 µM
GI50 (M14 melanoma): 12.4 µM
TGI (M14 melanoma): 26.7 µM
GI50 (NCI-H522 lung): 3.74 µM
TGI (NCI-H522 lung): 20.7 µM
GI50 (PC-3 prostate): 6.89 µM
TGI (PC-3 prostate): 21.6 µM
GI50 (HT29 colon): 2.89 µM
TGI (HT29 colon): 12.9 µM
GI50 (NCI-H460 lung): 1.84 µM
TGI (NCI-H460 lung): 3.77 µM
GI50 (HCC-2998 colon): 4.26 µM
TGI (HCC-2998 colon): 14.8 µM
GI50 (SNB-75 CNS): 5.97 µM
TGI (SNB-75 CNS): 20.7 µM
GI50 (OVCAR-4 ovarian): 3.79 µM
TGI (OVCAR-4 ovarian): 14.8 µM
GI50 (U251 CNS): 4.58 µM
TGI (U251 CNS): 18.1 µM
GI50 (SF-539 CNS): 7.97 µM
TGI (SF-539 CNS): 23.1 µM
GI50 (MDA-MB-231 breast): 3.17 µM
TGI (MDA-MB-231 breast): 20.4 µM
GI50 (DU-145 prostate): 5.82 µM
TGI (DU-145 prostate): 18.6 µM
GI50 (A498 renal): 11.9 µM
TGI (A498 renal): 25.1 µM
GI50 (RPMI-8226 leukemia): 2.02 µM
TGI (RPMI-8226 leukemia): 5.27 µM
GI50 (HCT-116 colon): 1.68 µM
TGI (HCT-116 colon): 3.27 µM
GI50 (NCI-H226 lung): 13.1 µM
TGI (NCI-H226 lung): 29.5 µM
GI50 (TK-10 renal): 12.2 µM
TGI (TK-10 renal): 25.5 µM
GI50 (UACC-62 melanoma): 7.72 µM
TGI (UACC-62 melanoma): 22 µM
GI50 (LOX IMVI melanoma): 1.65 µM
TGI (LOX IMVI melanoma): 3.4 µM
GI50 (SF-268 CNS): 11.8 µM
TGI (SF-268 CNS): 25.8 µM
GI50 (CCRF-CEM leukemia): 4.04 µM
TGI (CCRF-CEM leukemia): 36.8 µM
GI50 (SK-MEL-5 melanoma): 8.14 µM
TGI (SK-MEL-5 melanoma): 21 µM
GI50 (BT-549 breast): 14.8 µM
TGI (BT-549 breast): 29.7 µM
GI50 (NCI/ADR-RES ovarian): 2.95 µM
TGI (NCI/ADR-RES ovarian): 16.7 µM
GI50 (SNB-19 CNS): 7.02 µM
TGI (SNB-19 CNS): 23.8 µM
GI50 (EKVX NSCLC): 8.04 µM
TGI (EKVX NSCLC): 21.4 µM
GI50 (HCT-15 colon): 1.33 µM
TGI (HCT-15 colon): 10.3 µM
GI50 (786-0 renal): 6.72 µM
TGI (786-0 renal): 20.5 µM
